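Five compound concentrations were applied to cells in 96-well plates for 48 hours; endpoints were derived by simple linear interpolation of the resulting dose-response curve. TGI denotes the concentration required for complete inhibition of growth.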
Columns and labels:
Assay in all cases: NCI tumour cell line growth inhibition, 48 h
A549 NSCLC = system: A549 NSCLC
OVCAR-4 ovarian = system: OVCAR-4 ovarian
RPMI-8226 leukemia = system: RPMI-8226 leukemia
CAKI-1 renal = system: CAKI-1 renal
MDA-N = system: MDA-N
HS 578T breast = system: HS 578T breast
OVCAR-3 ovarian = system: OVCAR-3 ovarian
NCI-H522 lung = system: NCI-H522 lung
M14 melanoma = system: M14 melanoma
SNB-19 CNS = system: SNB-19 CNS
SNB-75 CNS = system: SNB-75 CNS
UACC-62 melanoma = system: UACC-62 melanoma
HOP-62 NSCLC = system: HOP-62 NSCLC
IGROV1 ovarian = system: IGROV1 ovarian
UO-31 renal = system: UO-31 renal
HT29 colon = system: HT29 colon
HOP-92 NSCLC = system: HOP-92 NSCLC
SF-539 CNS = system: SF-539 CNS
NCI-H226 lung = system: NCI-H226 lung
T-47D breast = system: T-47D breast
PC-3 prostate = system: PC-3 prostate
SK-OV-3 ovarian = system: SK-OV-3 ovarian
CCRF-CEM leukemia = system: CCRF-CEM leukemia
K-562 leukemia = system: K-562 leukemia
UACC-257 melanoma = system: UACC-257 melanoma
COLO 205 colon = system: COLO 205 colon
SF-268 CNS = system: SF-268 CNS
HCT-15 colon = system: HCT-15 colon
SK-MEL-2 melanoma = system: SK-MEL-2 melanoma
HCC-2998 colon = system: HCC-2998 colon
SF-295 CNS = system: SF-295 CNS
SK-MEL-5 melanoma = system: SK-MEL-5 melanoma
HCT-116 colon = system: HCT-116 colon
NCI-H460 lung = system: NCI-H460 lung
MALME-3M melanoma = system: MALME-3M melanoma
KM12 colon = system: KM12 colon
SN12C renal = system: SN12C renal
SW-620 colon = system: SW-620 colon
MCF7 breast = system: MCF7 breast
EKVX NSCLC = system: EKVX NSCLC
ACHN renal = system: ACHN renal
A498 renal = system: A498 renal
U251 CNS = system: U251 CNS
OVCAR-8 ovarian = system: OVCAR-8 ovarian
786-0 renal = system: 786-0 renal
OVCAR-5 ovarian = system: OVCAR-5 ovarian
BT-549 breast = system: BT-549 breast
RXF 393 renal = system: RXF 393 renal
HL-60(TB) leukemia = system: HL-60(TB) leukemia
MOLT-4 leukemia = system: MOLT-4 leukemia
LOX IMVI melanoma = system: LOX IMVI melanoma
NCI/ADR-RES ovarian = system: NCI/ADR-RES ovarian
NCI-H23 lung = system: NCI-H23 lung
MDA-MB-435 = system: MDA-MB-435
MDA-MB-231 breast = system: MDA-MB-231 breast
TK-10 renal = system: TK-10 renal
SK-MEL-28 melanoma = system: SK-MEL-28 melanoma
SR leukemia = system: SR leukemia
DU-145 prostate = system: DU-145 prostate

Compound: O=c1oc2ccc(-n3c(=O)c4ccccc4c4ccccc4c3=O)cc2c2ccccc12
- TGI (A549 NSCLC): > 100 µM
- TGI (OVCAR-4 ovarian): > 100 µM
- TGI (RPMI-8226 leukemia): > 100 µM
- TGI (CAKI-1 renal): > 100 µM
- TGI (MDA-N): > 100 µM
- TGI (HS 578T breast): 81 µM
- TGI (OVCAR-3 ovarian): > 100 µM
- TGI (NCI-H522 lung): > 100 µM
- TGI (M14 melanoma): > 100 µM
- TGI (SNB-19 CNS): > 100 µM
- TGI (SNB-75 CNS): 85.7 µM
- TGI (UACC-62 melanoma): > 100 µM
- TGI (HOP-62 NSCLC): > 100 µM
- TGI (IGROV1 ovarian): > 100 µM
- TGI (UO-31 renal): > 100 µM
- TGI (HT29 colon): > 100 µM
- TGI (HOP-92 NSCLC): 84.5 µM
- TGI (SF-539 CNS): > 100 µM
- TGI (NCI-H226 lung): > 100 µM
- TGI (T-47D breast): > 100 µM
- TGI (PC-3 prostate): > 100 µM
- TGI (SK-OV-3 ovarian): > 100 µM
- TGI (CCRF-CEM leukemia): > 100 µM
- TGI (K-562 leukemia): > 100 µM
- TGI (UACC-257 melanoma): > 100 µM
- TGI (COLO 205 colon): > 100 µM
- TGI (SF-268 CNS): > 100 µM
- TGI (HCT-15 colon): > 100 µM
- TGI (SK-MEL-2 melanoma): > 100 µM
- TGI (HCC-2998 colon): > 100 µM
- TGI (SF-295 CNS): > 100 µM
- TGI (SK-MEL-5 melanoma): > 100 µM
- TGI (HCT-116 colon): > 100 µM
- TGI (NCI-H460 lung): > 100 µM
- TGI (MALME-3M melanoma): > 100 µM
- TGI (KM12 colon): > 100 µM
- TGI (SN12C renal): > 100 µM
- TGI (SW-620 colon): > 100 µM
- TGI (MCF7 breast): > 100 µM
- TGI (EKVX NSCLC): > 100 µM
- TGI (ACHN renal): > 100 µM
- TGI (A498 renal): > 100 µM
- TGI (U251 CNS): 63.6 µM
- TGI (OVCAR-8 ovarian): > 100 µM
- TGI (786-0 renal): > 100 µM
- TGI (OVCAR-5 ovarian): > 100 µM
- TGI (BT-549 breast): > 100 µM
- TGI (RXF 393 renal): > 100 µM
- TGI (HL-60(TB) leukemia): > 100 µM
- TGI (MOLT-4 leukemia): > 100 µM
- TGI (LOX IMVI melanoma): > 100 µM
- TGI (NCI/ADR-RES ovarian): > 100 µM
- TGI (NCI-H23 lung): > 100 µM
- TGI (MDA-MB-435): > 100 µM
- TGI (MDA-MB-231 breast): > 100 µM
- TGI (TK-10 renal): > 100 µM
- TGI (SK-MEL-28 melanoma): > 100 µM

Compound: CN(C)Cc1cc(C=O)cc(CN(C)C)c1O
- TGI (SR leukemia): > 100 µM
- TGI (A549 NSCLC): > 100 µM
- TGI (OVCAR-4 ovarian): > 100 µM
- TGI (RPMI-8226 leukemia): > 100 µM
- TGI (MDA-N): > 100 µM
- TGI (DU-145 prostate): > 100 µM
- TGI (HS 578T breast): > 100 µM
- TGI (OVCAR-3 ovarian): > 100 µM
- TGI (NCI-H522 lung): > 100 µM
- TGI (SNB-19 CNS): > 100 µM
- TGI (SNB-75 CNS): > 100 µM
- TGI (HOP-62 NSCLC): > 100 µM
- TGI (IGROV1 ovarian): > 100 µM
- TGI (UO-31 renal): > 100 µM
- TGI (HT29 colon): > 100 µM
- TGI (HOP-92 NSCLC): > 100 µM
- TGI (SF-539 CNS): > 100 µM
- TGI (NCI-H226 lung): > 100 µM
- TGI (PC-3 prostate): > 100 µM
- TGI (CCRF-CEM leukemia): > 100 µM
- TGI (K-562 leukemia): > 100 µM
- TGI (UACC-257 melanoma): > 100 µM
- TGI (COLO 205 colon): > 100 µM
- TGI (SF-268 CNS): > 100 µM
- TGI (HCT-15 colon): > 100 µM
- TGI (HCC-2998 colon): > 100 µM
- TGI (SF-295 CNS): > 100 µM
- TGI (SK-MEL-5 melanoma): > 100 µM
- TGI (HCT-116 colon): > 100 µM
- TGI (NCI-H460 lung): > 100 µM
- TGI (MALME-3M melanoma): > 100 µM
- TGI (KM12 colon): > 100 µM
- TGI (SN12C renal): > 100 µM
- TGI (SW-620 colon): > 100 µM
- TGI (MCF7 breast): > 100 µM
- TGI (EKVX NSCLC): > 100 µM
- TGI (ACHN renal): > 100 µM
- TGI (A498 renal): > 100 µM
- TGI (U251 CNS): > 100 µM
- TGI (OVCAR-8 ovarian): > 100 µM
- TGI (786-0 renal): > 100 µM
- TGI (BT-549 breast): > 100 µM
- TGI (RXF 393 renal): > 100 µM
- TGI (HL-60(TB) leukemia): > 100 µM
- TGI (MOLT-4 leukemia): > 100 µM
- TGI (LOX IMVI melanoma): > 100 µM
- TGI (NCI/ADR-RES ovarian): > 100 µM
- TGI (NCI-H23 lung): 67.4 µM
- TGI (MDA-MB-435): > 100 µM
- TGI (MDA-MB-231 breast): > 100 µM
- TGI (TK-10 renal): > 100 µM
- TGI (SK-MEL-28 melanoma): > 100 µM

Source: PubChem BioAssay (NCI)
